Assay results taken from patent US6929685B2, “Alkylamine derivatives as antifouling agents” (Bayer Atiengesellschaft, priority 2001, dated 2005).

Columns and labels:
Details in all cases: Dutch harbor, sea water
[1] = tested on: fouling organisms; assay: Raft panel static immersion test of antifouling paints: overall; parameters: key: good (G); satisfactory (S); failure (F)
Excerpt: (§1) The prepared paints have been evaluated on can stability, adhesion and film defects. The antifouling performance has been tested by application of the paints on raft panels. At first the steel panels had been protected with a standard anticorrosive system for marine environments (300 μm in dft). The to be tested antifouling paint had been applied in 2 layers with a total dry film thickness between 200 and 300 μm. Finally the panels were subjected to a static immersion test on rafts at sea harbors in Holland. The paints were inspected for the presence of fouling (% of area covered with fouling organisms) and of film defects every two months. The tested paint formulations are represented in Table 1.
(§2) Further explanations to Table 1: • 1. Model coatings of type 1 (MC-1A/B/C) are for the evaluation of the algicidal properties of the claimed structures at three different representative weight-% next to 35% cuprous oxide. Good performing references are model coating MC-2 and MC-3 [35% cuprous oxide+3% Seanine (MC-2) or 35% cuprous oxide+3% Irgarol (MC-3)]. Base level references are “cuprous oxide only” formulations [cuprous oxide only (35% (MC4) and 50% level (MC-5)]. • 2. Model coatings of type 6 and 7 are for the evaluation of the activity of the claimed structures against “hard fouling” in combination with two different types of algicides: claimed structure (1/2/4%; MC-6-A/B/C)+3% Seanine or claimed structure (1/2/4%; MC-7-A/B/C)+3% Irgarol). Base level references are “algicide only” formulations with 3% Seanine (MC-8) or 3% Irgarol (MC-9).
(§3) 3. Model coatings of type 10 (MC-10A/B) evaluate the total spectrum of biocidal activity by using the claimed structure as only biocide at 2 levels (4 and 8 w %). Good performing references are “cuprous oxide only” formulations [cuprous oxide 35% (MC-4) and 50% (MC-5)]. As blank serves model coating 11 (MC-1 1) containing no biocide at all.
(§4) The claimed structures were tested at several levels of dosage with and without an algicide as co-biocide. The following formulations were used for comparison: formulations with cuprous oxide, formulations with cuprous oxide and commercial co-biocides, a blank and two formulations that only contained the co-biocide and finally a commercial tributyltin-releasing self polishing system.
(§5) An even better protection can be obtained by combining claimed structures with co-biocides like the algicides that are commonly used for antifoulings.

[2] = tested on: hard fouling; assay: Raft panel static immersion test of antifouling paints: hard fouling; parameters: key: G: Not present; Some light slime; F: Overall covered
Excerpt: as §1, §2, §3, §4, §5

[3] = tested on: slime; assay: Raft panel static immersion test of antifouling paints: slime; parameters: key: G: Not present; Some light slime; F: Overall covered
Excerpt: as §1, §2, §3, §4, §5

[4] = tested on: algae; assay: Raft panel static immersion test of antifouling paints: algae; parameters: key: G: Not present; Some light slime; F: Overall covered
Excerpt: as §1, §2, §3, §4, §5

[5] = model coating 1A: 35% Cu2O + 1% of compound
[6] = model coating 1B: 35% Cu2O + 2% of compound
[7] = model coating 1C: 35% Cu2O + 3% of compound
[8] = model coating 6A: 1% of compound + 3% Seanine
[9] = model coating 6B: 2% of compound + 3% Seanine
[10] = model coating 6C: 4% of compound + 3% Seanine
[11] = model coating 7A: 1% of compound + 3% Irgarol
[12] = model coating 7B: 2% of compound + 3% Irgarol
[13] = model coating 7C: 4% of compound + 3% Irgarol
[14] = model coating 10A: 4% of compound as only biocide
[15] = model coating 10B: 8% of compound as only biocide

Compound | Performance (1 yr immersed) Overall [1, 5] | Performance (1 yr immersed) Overall [1, 6] | Performance (1 yr immersed) Overall [1, 7] | Performance (1 yr immersed) Overall [1, 8] | Performance (1 yr immersed) Overall [1, 9] | Performance (1 yr immersed) Overall [1, 10] | Performance (1 yr immersed) Overall [1, 11] | Performance (1 yr immersed) Overall [1, 12] | Performance (1 yr immersed) Overall [1, 13] | Performance (1 yr immersed) Overall [1, 14] | Performance (1 yr immersed) Overall [1, 15] | Performance (1 yr immersed) Hard fouling [2, 5] | Performance (1 yr immersed) Hard fouling [2, 6] | Performance (1 yr immersed) Hard fouling [2, 7] | Performance (1 yr immersed) Hard fouling [2, 10] | Performance (1 yr immersed) Hard fouling [2, 15] | Performance (1 yr immersed) Slime [3, 5] | Performance (1 yr immersed) Slime [3, 6] | Performance (1 yr immersed) Slime [3, 7] | Performance (1 yr immersed) Slime [3, 8] | also measured
O=CNCCCCCCCCCCCBr [Compound 7, N-formyl-11-bromo-undecyl-1-amine] | S | S | G | F | S | G | F | S | S | F | S | G | G | G | G | G | S | S | G | S | Performance (1 yr immersed) Slime [3, 9]: S; Performance (1 yr immersed) Slime [3, 10]: G; Performance (1 yr immersed) Slime [3, 11]: S; Performance (1 yr immersed) Slime [3, 12]: S; Performance (1 yr immersed) Slime [3, 13]: S; Performance (1 yr immersed) Slime [3, 14]: F; Performance (1 yr immersed) Slime [3, 15]: S; Performance (1 yr immersed) Algae [4, 6]: G; Performance (1 yr immersed) Algae [4, 7]: G; Performance (1 yr immersed) Algae [4, 8]: G; Performance (1 yr immersed) Algae [4, 9]: G; Performance (1 yr immersed) Algae [4, 10]: G; Performance (1 yr immersed) Algae [4, 11]: G; Performance (1 yr immersed) Algae [4, 12]: G; Performance (1 yr immersed) Algae [4, 13]: G
O=CNCCCCCCCCCC(Br)CBr (stereo not shown) [Compound 3, N-formyl-10,11-dibromoundecylamine] | S | S | G | F | S | G | F | S | S | F | S | G | G | G | G | G | S | S | G | S | Performance (1 yr immersed) Slime [3, 9]: S; Performance (1 yr immersed) Slime [3, 10]: G; Performance (1 yr immersed) Slime [3, 11]: S; Performance (1 yr immersed) Slime [3, 12]: S; Performance (1 yr immersed) Slime [3, 13]: S; Performance (1 yr immersed) Slime [3, 14]: F; Performance (1 yr immersed) Slime [3, 15]: S; Performance (1 yr immersed) Algae [4, 6]: G; Performance (1 yr immersed) Algae [4, 7]: G; Performance (1 yr immersed) Algae [4, 8]: G; Performance (1 yr immersed) Algae [4, 9]: G; Performance (1 yr immersed) Algae [4, 10]: G; Performance (1 yr immersed) Algae [4, 11]: G; Performance (1 yr immersed) Algae [4, 12]: G; Performance (1 yr immersed) Algae [4, 13]: G
